Values quoted from earlier work, collected in patent US20010046957A1, “Method for treating hepatitis C” (priority 1999, published 2001).

Columns and labels:
yellow fever virus = conditions: (Neyts J)
HCV [1] = conditions: patients with CHC virus infection following liver transplant, after initiation of MMF therapy for rejection; anecdotal report (Platz KP)
HCV [2] = system: HCV
[3] = patients treated at currently recommended doses
[4] = in vivo

COc1c(C)c2c(c(O)c1C/C=C(\C)CCC(=O)OCCN1CCOCC1)C(=O)OC2 [MMF, mycophenolate mofetil]
antiviral activity (yellow fever virus): antiviral activity
serum HCV RNA levels (HCV [1]): decrease in some patients

NC(=O)c1ncn([C@@H]2O[C@H](CO)[C@@H](O)[C@H]2O)n1 [Ribavirin, 1-β-D-ribofuranosyl-1 H-1 ,2,-4-triazole-3-carboxamide]
improvement of sustained virological response rates over IFN-α monotherapy (HCV [2]; ribavirin combined with IFNα, CHC (Lai MY; Reichard O)): approximately 2 fold
end of treatment virological response (HCV [2]; ribavirin combined with a pegylated form of IFN-α2A, small pilot study of safety (Sulkowski M.)): 70%
sustained loss of detectable virus (HCV [2]; ribavirin plus IFNα regimen, treated patients (McHutchison JG)): 30 - 40%
significant hemolysis, patients affected [3]: 10-20%

IFN-α
sustained response (HCV [2]; IFN-α monotherapy, general CHC populations (Fried M)): 5-20%

Mycophenolic acid [MPA]
bioavailability [4]: limited
